Experimental data reported in patent US20230080054A1 (ILDONG PHARMACEUTICAL CO., LTD., priority 2021, published 2023).

How the values were obtained:
human ANO6 [1] = biological target: T1, human ANO6 (Homo sapiens, UniProt Q4KMQ2); assay: YFP quenching assay (ANO6 ion channel activity); type: cell-based; settings: 10 μM ionomycin; for inhibition at 1 µM: test compound 1 μM, read-out: Inhibition Level 1 μM; for inhibition at 30 µM: test compound 30 μM, read-out: Inhibition Level 30 μM
T1 construct: expressed in transfected cells
T1 sequence (Q4KMQ2 1-931 isoform Q4KMQ2-2): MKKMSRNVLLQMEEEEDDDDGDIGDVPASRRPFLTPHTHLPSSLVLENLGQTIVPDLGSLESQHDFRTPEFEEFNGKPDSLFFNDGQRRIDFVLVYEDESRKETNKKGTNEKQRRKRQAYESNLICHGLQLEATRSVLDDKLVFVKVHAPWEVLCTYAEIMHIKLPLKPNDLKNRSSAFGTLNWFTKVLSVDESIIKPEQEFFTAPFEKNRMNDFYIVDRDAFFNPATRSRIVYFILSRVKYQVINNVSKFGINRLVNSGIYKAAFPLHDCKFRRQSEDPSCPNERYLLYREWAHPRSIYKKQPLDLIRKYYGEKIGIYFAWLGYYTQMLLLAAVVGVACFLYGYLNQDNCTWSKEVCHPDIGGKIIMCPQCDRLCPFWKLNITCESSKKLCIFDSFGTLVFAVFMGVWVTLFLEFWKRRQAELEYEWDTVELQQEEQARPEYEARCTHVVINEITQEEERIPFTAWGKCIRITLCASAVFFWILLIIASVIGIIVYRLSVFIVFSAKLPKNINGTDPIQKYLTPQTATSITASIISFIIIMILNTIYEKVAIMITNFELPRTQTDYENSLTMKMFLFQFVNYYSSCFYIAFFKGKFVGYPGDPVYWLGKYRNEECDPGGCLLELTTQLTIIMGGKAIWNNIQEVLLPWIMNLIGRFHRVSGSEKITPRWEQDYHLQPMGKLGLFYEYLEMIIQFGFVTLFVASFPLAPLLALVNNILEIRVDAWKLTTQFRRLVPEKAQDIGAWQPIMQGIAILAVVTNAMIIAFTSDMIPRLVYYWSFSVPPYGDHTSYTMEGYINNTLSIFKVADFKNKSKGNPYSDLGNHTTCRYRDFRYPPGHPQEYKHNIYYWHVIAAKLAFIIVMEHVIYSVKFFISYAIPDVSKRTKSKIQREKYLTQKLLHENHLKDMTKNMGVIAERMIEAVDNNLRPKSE
How it was run: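 FRT cells stably expressing human ANO6 and YFP-H148Q/I152L/F46L, preincubated 10 min at 40° C with compounds (1% DMSO) in PBS. Quench read every 0.4 s after injecting 140 mM SCN- with 10 μM ionomycin; % inhibition from the 3.6–7.6 s fluorescence difference, normalised to no-ionomycin (100%) and ionomycin-only (0%) wells, duplicate or triplicate.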

human ANO6 [2] = biological target: T1, human ANO6; assay: LACT C2 assay (phosphatidylserine scramblase function assay); type: cell-based; settings: FRT cells expressing human ANO6, 10 μM ionomycin; for inhibition at 0.1 µM: test compound 100 nM, read-out: Inhibition Level 100 nM; for inhibition at 1 µM: test compound 1 μM, read-out: Inhibition Level 1 μM
How it was run: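 FRT cells stably expressing human ANO6 were pretreated with compound (1% DMSO) for 10 min, then stimulated with 10 μM ionomycin for 10 min. Surface phosphatidylserine was stained with 500 nM Lact-C2-GFP and quantified by imaging. Inhibition was scaled between unstimulated (100%) and ionomycin-only (0%) controls, averaged over triplicates.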

| SMILES | inhibition at 1 µM (human ANO6 [1]) | inhibition at 30 µM (human ANO6 [1]) | inhibition at 0.1 µM (human ANO6 [2]) | inhibition at 1 µM (human ANO6 [2]) |
| --- | --- | --- | --- | --- |
| O=C(NCC1CCCC1)c1cccc(Nc2ccc(-c3ccccc3)nn2)c1 [Compound 33, N-(cyclopentylmethyl)-3-[(6-phenylpyridazin-3-yl)amino]benzamide] | ≥ 60% | ≥ 60% | < 30% | ≥ 60% |
| O=C(NCCCc1ccccc1)c1cccc(Nc2ccc(-c3ccccc3)nn2)c1 [Compound A51] | ≥ 60% | ≥ 60% | 30 to 60% | 30 to 60% |
| Cc1ccc(CNC(=O)c2cccc(Nc3ncc(-c4cccs4)cn3)c2)o1 [Compound 110, N-[(5-methylfuran-2-yl)methyl]-3-{[5-(thiophen-2-yl)pyrimidin-2-yl]amino}benzamide] | 30 to 60% |  |  | 30 to 60% |
| O=C(NCCCc1ccccc1)c1cccc(Nc2ccc(-c3ccccc3)cc2)c1 [Compound 53, 3-({[1,1′-biphenyl]-4-yl}amino)-N-(3-phenylpropyl)benzamide] | ≥ 60% |  |  | ≥ 60% |
| O=C(NC1CCCCC1)c1cccc(Nc2ccc(-c3ccccc3)nn2)c1 [Compound A62] | 30 to 60% | ≥ 60% | < 30% | 30 to 60% |
| O=C(NCCc1ccccc1)c1cccc(Nc2ccc(-c3ccc(F)cc3)nn2)c1 [Compound A4] | ≥ 60% | ≥ 60% | < 30% | < 30% |
| CCCCCCCNC(=O)c1cccc(Nc2ccc(-c3ccccc3)nn2)c1 [Compound A38] | ≥ 60% | ≥ 60% | ≥ 60% | ≥ 60% |
| O=C(NCCc1ccccc1)c1cccc(Nc2ccc(-c3ccccc3)nn2)c1 [Compound A74] | ≥ 60% | ≥ 60% | < 30% | 30 to 60% |
| O=C(NC1CCN(Cc2ccccc2)CC1)c1cccc(Nc2ncc(-c3ccccc3)cn2)c1 [Compound 120, N-(1-benzylpiperidin-4-yl)-3-[(5-phenylpyrimidin-2-yl)amino]benzamide] | < 30% |  | < 30% | < 30% |
| O=C(Nc1cccc(F)c1)c1cccc(Nc2ncc(-c3ccccc3)cn2)c1 [Compound 116, N-(3-fluorophenyl)-3-[(5-phenylpyrimidin-2-yl)amino]benzamide] | ≥ 60% |  | < 30% | ≥ 60% |
| Cc1ccc(C(C)NC(=O)c2cccc(Nc3ccc(-c4ccccc4)nn3)c2)cc1 (centres unmarked) [Compound A57] | ≥ 60% | ≥ 60% | < 30% | < 30% |
| O=C(NCCc1cc(F)cc(F)c1)c1cccc(Nc2ncc(-c3ccccc3)cn2)c1 [Compound 82, N-[2-(3,5-difluorophenyl)ethyl]-3-[(5-phenylpyrimidin-2-yl)amino]benzamide] | 30 to 60% |  |  | < 30% |
| O=C(Nc1ccc(N2CCOCC2)cc1)c1cccc(Nc2ncc(-c3cccc(F)c3)cn2)c1 [Compound A84] | ≥ 60% |  | < 30% | 30 to 60% |
| CC(C)CCNC(=O)c1cccc(Nc2ccc(-c3ccc(F)cc3)nn2)c1 [Compound A13] | ≥ 60% | ≥ 60% | < 30% | 30 to 60% |
| O=C(N[C@@H]1C[C@H]1c1ccccc1)c1cccc(Nc2ncc(-c3ccccc3)cn2)c1 [Compound 117, N-[(1R,2S)-2-phenylcyclopropyl]-3-[(5-phenylpyrimidin-2-yl)amino]benzamide] | ≥ 60% |  | < 30% | < 30% |
| Cc1ccccc1CNC(=O)c1cccc(Nc2ccc(-c3ccc(F)cc3)nn2)c1 [Compound A35] | ≥ 60% | ≥ 60% | < 30% | < 30% |

| SMILES | inhibition at 1 µM (human ANO6 [1]) | inhibition at 30 µM (human ANO6 [1]) | inhibition at 0.1 µM (human ANO6 [2]) | inhibition at 1 µM (human ANO6 [2]) |
| --- | --- | --- | --- | --- |
| O=C(NCc1ccc(F)cc1)c1cccc(Nc2ccc(-c3ccccc3)nn2)c1 [Compound A24] | ≥ 60% | ≥ 60% |  | 30 to 60% |
| O=C(Nc1ccccc1)c1cccc(Nc2ccc(-c3ccccc3)nn2)c1 [Compound A89] | ≥ 60% |  | 30 to 60% | ≥ 60% |
| O=C(NCc1ccccc1)c1cccc(Nc2ccc(-c3ccccc3)nn2)c1 [Compound A75] | 30 to 60% | ≥ 60% | < 30% | 30 to 60% |
| O=C(NCc1ccoc1)c1cccc(Nc2ccc(-c3ccccc3)nn2)c1 [Compound 45, N-[(furan-3-yl)methyl]-3-[(6-phenylpyridazin-3-yl)amino]benzamide] | ≥ 60% |  |  | < 30% |
| O=C(NCc1ccc(Cl)c(Cl)c1)c1cccc(Nc2ccc(-c3ccccc3)nn2)c1 [Compound 36, N-(3,4-dichlorobenzyl)-3-((6-phenylpyridazin-3-yl)amino)benzamide] | ≥ 60% | ≥ 60% | 30 to 60% | ≥ 60% |
| Cc1ccc(CNC(=O)c2cccc(Nc3ccc(-c4cccc(F)c4)cn3)c2)o1 [Compound 125, 3-{[5-(3-fluorophenyl)pyridin-2-yl]amino}-N-[(5-methylfuran-2-yl)methyl]benzamide] | ≥ 60% |  | < 30% | ≥ 60% |
| CCOc1ccc(NC(=O)c2cccc(Nc3ccc(-c4ccccc4)nn3)c2)cc1 [Compound A80] | ≥ 60% |  | < 30% | ≥ 60% |
| Cc1ccc(CNC(=O)c2cccc(Nc3cnc(-c4cccc(F)c4)cn3)c2)o1 [Compound 58, 3-{[5-(3-fluorophenyl)pyrazin-2-yl]amino}-N-[(5-methylfuran-2-yl)methyl]benzamide] | ≥ 60% |  |  | < 30% |
| O=C(NCc1ccc(Cl)cc1)c1cccc(Nc2ccc(-c3ccccc3)nn2)c1 [Compound A49] | 30 to 60% | ≥ 60% | < 30% | 30 to 60% |
| Cc1ccc(CNC(=O)c2cccc(Nc3ccc(-c4ccoc4)nn3)c2)o1 [Compound 7, 3-{[6-(furan-3-yl)pyridazin-3-yl]amino}-N-[(5-methylfuran-2-yl)methyl]benzamide] | ≥ 60% | ≥ 60% | < 30% | ≥ 60% |
| CC(C)CNC(=O)c1cccc(Nc2ccc(-c3ccc(F)cc3)nn2)c1 [Compound A11] | ≥ 60% | ≥ 60% | < 30% | < 30% |
| CCN(CCNC(=O)c1cccc(Nc2ccc(-c3ccccc3)nn2)c1)Cc1ccccc1 [Compound A41] | 30 to 60% | ≥ 60% | < 30% | 30 to 60% |
| Cc1ccc(CNC(=O)c2cccc(Nc3ccc(-c4ccc(Cl)cc4)nn3)c2)o1 [Compound 75, 3-{[6-(4-chlorophenyl)pyridazin-3-yl]amino}-N-[(5-methylfuran-2-yl)methyl]benzamide] | 30 to 60% |  |  | 30 to 60% |
| COc1cccc(CCNC(=O)c2cccc(Nc3ncc(-c4cccc(F)c4)cn3)c2)c1 [Compound 78, 3-{[5-(3-fluorophenyl)pyrimidin-2-yl]amino}-N-[2-(3-methoxyphenyl)ethyl]benzamide] | 30 to 60% |  | 30 to 60% | ≥ 60% |
| CCCOc1ccc(CNC(=O)c2cccc(Nc3ccc(-c4ccccc4)nn3)c2)cc1 [Compound A47] | ≥ 60% | ≥ 60% | 30 to 60% |  |
| O=C(NCCc1ccccc1)c1cccc(Nc2ncc(-c3ccccc3)cn2)c1 [Compound 52, N-(2-phenylethyl)-3-[(5-phenylpyrimidin-2-yl)amino]benzamide] | ≥ 60% |  |  | 30 to 60% |
